Reference: patent US20250136634A1, “CAP ANALOG AND USE THEREOF” (SHANGHAI HONGENE BIOTECH CORPORATION, priority 2021, published 2025)

Key:
T7 RNA polymerase = T7 RNA polymerase (Escherichia phage T7, UniProt P00573); experiment: Capping efficiency of mRNA from T7 in vitro transcription, RNaseH cleavage and LC-MS (Example 2); type: biochemical; conditions: Example 2, T7 RNA polymerase IVT at 37° C. for 2 hs
Description: (5) Treatment with Antarctic Phosphatase:

IFIT1 = target: T1, IFIT1 (Homo sapiens, UniProt P09914); experiment: Binding ability of mRNA to IFIT1, RNA co-immunoprecipitation and qPCR in Hela cells; conditions: 2 ug mRNA/well, cells collected after 24 hours, relative to ^m7GpppApG cap, mean±SD
T1 construct: endogenous in cells; host or cells: Hela cells (ATCC CCL-2)
T1 sequence (P09914 1-478): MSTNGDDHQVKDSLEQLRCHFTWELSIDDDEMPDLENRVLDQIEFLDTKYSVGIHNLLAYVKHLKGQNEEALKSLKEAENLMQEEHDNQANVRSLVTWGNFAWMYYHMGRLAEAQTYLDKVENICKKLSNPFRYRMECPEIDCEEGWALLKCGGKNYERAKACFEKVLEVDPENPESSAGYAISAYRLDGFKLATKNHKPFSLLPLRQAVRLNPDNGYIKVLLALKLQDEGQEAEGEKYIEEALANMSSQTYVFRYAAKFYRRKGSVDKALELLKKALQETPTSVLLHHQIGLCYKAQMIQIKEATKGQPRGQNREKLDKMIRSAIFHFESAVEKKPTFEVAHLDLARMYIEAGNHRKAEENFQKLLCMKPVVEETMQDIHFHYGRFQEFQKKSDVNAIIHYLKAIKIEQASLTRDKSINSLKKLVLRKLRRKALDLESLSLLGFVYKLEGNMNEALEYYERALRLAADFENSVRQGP
Procedure: In this example, Hela cells (ATCC CCL-2) were transfected with luciferase mRNAs (Gaussia luciferase) comprising various initial cap structures (the initial cap nucleotide structures comprised are: ^m7GpppApG, ^m7GpppA2′Ome pG, ^m7G3′OmepppA2′O-ethylpG, ^m7G2′OmepppA2′O-ethylpG, ^m7G3′Omeppp A2′O-MOEpG, ^m7G2′O-mepppA2′O-MOEpG, ^m7Gppp(N6-methyladenine)2′O-MOEpG, ^m7G2′OmepppC2′O-ethylpC, ^m7G3′OmepppA2′O-MOEpU), and collected after 24 hours. The intracellular proteins RIG-I and IFIT1 were co-precipitated with the RNAs to which they bound by RNA co-immunoprecipation. The mRNAs were subjected to reverse transcription and real-time quantitative PCR, and the relative abundance of the mRNAs is proportional to their RIG-I and IFIT1 binding ability.
(§1) Hela cells were seeded at a cell density of 4×10^5/well in 6-well plates, and transfected with mRNA at 2 ug mRNA/well when the cell density reached about 80% using Lipofectamine MessengerMAX Transfection Reagent (Invitrogen) according to the transfection steps in the instruction. The cells were collected after 24 hours, and incubated at RT for 10 minutes after the addition of fixative solution. The reaction was then terminated by adding glycine at a suitable concentration, and the cells were collected by centrifugation. Appropriate amount of lysis solution was added to the cells. The mixture was incubated on ice for 30 minutes and centrifuged to collect supernatant. Appropriate amount of (2-4 ng) anti-RIG-I and IFIT1 antibodies (Abcam) were added to the supernatant, and the mixture was incubated overnight at 4° C. on a shaker, and then 20 ul Protein A/G magnetic beads were added and incubated for 2 hours at 4° C. on a shaker. The beads were rinsed using magnetic grate for 5 minutes and repeated 3 times. After that, 1 mL TRIzol reagent was added to the magnetic beads to extract RNAs which were then reverse transcribed into cDNAs. The expression of related genes was detected using real-time quantitative fluorescent PCR with B-actin as the internal reference. The detection of each gene was repeated 3 times, and the result of the expression of each gene is expressed as the relative value to the result of ^m7GpppApG cap.
The intracellular proteins RIG-I and IFIT1 were co-precipitated with the RNAs to which they bound by RNA co-immunoprecipitation. The mRNAs were subjected to reverse transcription and real-time quantitative PCR, and the relative abundance of the mRNAs is proportional to their RIG-I and IFIT1 binding ability.
as §1, with “(Invitrogen) as the transfection reagent” for “(Invitrogen)”, “was” for “was then”

T7 RNA polymerase, sequence (P00573 whole entry): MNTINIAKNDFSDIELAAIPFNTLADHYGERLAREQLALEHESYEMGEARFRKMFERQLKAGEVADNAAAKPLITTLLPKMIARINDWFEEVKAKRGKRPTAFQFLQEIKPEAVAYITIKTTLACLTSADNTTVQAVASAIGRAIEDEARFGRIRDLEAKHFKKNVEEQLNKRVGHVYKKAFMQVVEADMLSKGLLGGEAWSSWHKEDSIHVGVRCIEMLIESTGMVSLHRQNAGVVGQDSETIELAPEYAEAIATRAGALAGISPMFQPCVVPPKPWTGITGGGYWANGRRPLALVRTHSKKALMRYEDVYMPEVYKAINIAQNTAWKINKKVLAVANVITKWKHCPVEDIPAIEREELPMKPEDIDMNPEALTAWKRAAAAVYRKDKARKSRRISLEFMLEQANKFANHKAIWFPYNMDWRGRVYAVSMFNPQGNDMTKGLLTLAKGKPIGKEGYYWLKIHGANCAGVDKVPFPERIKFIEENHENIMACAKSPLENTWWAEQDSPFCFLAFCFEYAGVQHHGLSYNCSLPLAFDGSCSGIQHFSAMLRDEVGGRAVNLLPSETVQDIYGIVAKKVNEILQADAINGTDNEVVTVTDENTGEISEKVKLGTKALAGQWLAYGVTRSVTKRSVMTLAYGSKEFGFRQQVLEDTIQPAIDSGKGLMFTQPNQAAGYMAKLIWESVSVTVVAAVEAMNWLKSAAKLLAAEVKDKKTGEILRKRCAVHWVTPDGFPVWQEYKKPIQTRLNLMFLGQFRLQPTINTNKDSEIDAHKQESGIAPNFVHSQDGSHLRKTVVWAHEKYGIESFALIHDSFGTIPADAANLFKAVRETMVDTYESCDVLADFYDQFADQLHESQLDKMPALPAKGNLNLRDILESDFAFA

Row | Substance | Capping efficiency (T7 RNA polymerase) [%] | Relative binding ability to IFIT1 (IFIT1; Example 2) | Relative binding ability to IFIT1 (IFIT1; Example 3 (IVT at 50° C.))
1 | ^m7G2′OmepppA2′O-MOEpG | 88 | 0.66 ± 0.02 | –
2 | ^m7G2′OmepppA2′O-ethylpG | 92 | 0.84 ± 0.08 | –
3 | ^m7G2′OmepppC2′O-ethylpC | 92 | 0.91 ± 0.05 | –
4 | ^m7G3′OmepppA2′O-MOEpG | 89 | 0.76 ± 0.04 | –
5 | ^m7G3′OmepppA2′O-MOEpU | 93 | 1.19 ± 0.07 | –
6 | ^m7G3′OmepppA2′O-ethylpG | 94 | 0.89 ± 0.13 | –
7 | ^m7GAlpha-L-LNApppA2′O-ethyl pG | – | – | 0.55 ± 0.07
8 | ^m7GBeta-D-LNApppA2′O-MOEpG | – | – | 0.49 ± 0.04
9 | ^m7Gppp(N6-methyladenine)2′O-MOEpG | 84 | 0.79 ± 0.01 | –
10 | ^m7GpppA2′Ome pG [reference compound] | 97 | 0.88 ± 0.01 | 0.84 ± 0.09
11 | ^m7GpppApG [reference compound] | 98 | 1 ± 0.04 | 1 ± 0.19
